According to patent publication US4652582A, “Antiinflammatory-2-halo-4,5-diarylpyrroles” (E. I. Du Pont de Nemours and Company, priority 1985, dated 1987):

What follows are compounds tested on adjuvant-induced arthritis (assay: Established adjuvant-induced arthritis in rats (paw volume, uninjected left hind paw)). Conditions: Rattus norvegicus, po, read-out: Adjuvant Arthritis ED50 (effective dose for 50% decrease from control paw volume).
Format: in vivo, Male Charles River Lewis rats
Source text: To detect and compare the antiinflammatory activities of compounds in this series and standard drugs, the adjuvant arthritis test was used. A good correlation exists with results in this assay and human efficacy. (Federation Proceedings, 32, 2, 1973 "Models Used for the Study and Therapy of Rheumatoid Arthritis"--Symposium of the American Society for Pharmacology and Experimental Therapeutics).
ESTABLISHED ADJUVANT-INDUCED ARTHRITIS IN RATS
Male Charles River Lewis rats (130-150 grams) are injected subcutaneously in the plantar area of the right hind paw with 0.1 ml of adjuvant (Difco heat-killed, lyophilized Mycobacterium butyricum suspended in mineral oil 5 mg/ml). 20 Non-arthritic controls are injected with mineral oil. The animals are held for 2 weeks to allow development of arthritis. Paw volumes (uninjected, left hind paw) are measured and the adjuvant injected rats are culled and distributed to treatment groups of 10 of equal disease severity. Non-arthritic controls are distributed to 2 groups of 10. The rats are given oral doses of compound or PVA-Acacia (Polyvinyl Alcohol 1%, Gum acacia, U.S.P. 5%, Methylparaben 0.5%) or 0.25% methocel (10 ml/kg) by gavage on that day and on the 6 following days. One day after the last dose, the paw volumes (uninjected, left hind paw) are measured using a Ugo Basile Volume Differential Meter Model 7101. Inhibiting effects are calculated by the following formula: [formula]
Dose-response regression lines of the percent decrease are plotted on semi-log paper by visual fit and the effective dose for 50% decrease from control paw volume (ED50) is determined by inspection.
Compounds from this series were also compared to indomethacin, phenylbutazone, ibuprofen, and aspirin.

Compared with `COc1ccc2c(c1)c(CC(=O)O)c(C)n2C(=O)c1ccc(Cl)cc1` [Indomethacin, reference compound], `CC(=O)Oc1ccccc1C(=O)O` [Aspirin, reference compound] is 1000-fold higher in ED50: 0.3 mg/kg for the first, 305 mg/kg for the second.

Same assay, conditions: rat, oral gavage daily, 7 days; paw volume one day after last dose; read-out: Adjuvant Arthritis ED50 (effective dose for 50% decrease from control paw volume)

Going from `CS(=O)(=O)c1ccc(-c2[nH]c(Cl)cc2-c2ccc(F)cc2)cc1` [Example 3, 2-Chloro-4-(4-fluorophenyl)-5-(4-methylsulfonylphenyl)-1H-pyrrole] to `CS(=O)(=O)c1ccc(-c2[nH]c(Br)cc2-c2ccc(F)cc2)cc1` [Example 2, 2-Bromo-4-(4-fluorophenyl)-5-(4-methylsulfonylphenyl)-1H-pyrrole], the ED50 rises from 0.5 mg/kg to 1.1 mg/kg (2.2-fold).

Compared with `Cn1c(Br)cc(-c2ccc(F)cc2)c1-c1ccc(S(C)(=O)=O)cc1` [Example 5, 1-Methyl-2-bromo-4-(4-fluorophenyl)-5-(4-methylsulfonylphenyl)pyrrole], `CS(=O)(=O)c1ccc(-c2[nH]c(I)cc2-c2ccc(F)cc2)cc1` [Example 4, 2-Iodo-4-(4-fluorophenyl)-5-(4-methylsulfonylphenyl)-1H-pyrrole] is 13-fold higher in ED50: 1.7 mg/kg for the first, 22 mg/kg for the second.

Going from `CCCCC1C(=O)N(c2ccccc2)N(c2ccccc2)C1=O` [Phenylbutazone, reference compound] to `CS(=O)(=O)c1ccc(-c2[nH]c(Br)c(Br)c2-c2ccc(F)cc2)cc1` [Example 6], the ED50 falls from 10 mg/kg to 0.88 mg/kg (11-fold).

First: CS(=O)(=O)c1ccc(-c2[nH]c(Cl)c(Cl)c2-c2ccc(F)cc2)cc1 [Example 9]
Second: CC(C)Cc1ccc(C(C)C(=O)O)cc1 (stereo not drawn) [Ibuprofen, reference compound]
The ED50 of the first is 67-fold lower: 1.5 mg/kg for the first, 100 mg/kg for the second.

Same assay, conditions: rat, oral, daily dose 3 (mg/kg)

With `CS(=O)(=O)c1ccc(-c2[nH]c(Cl)c(Br)c2-c2ccc(F)cc2)cc1` [Example 8, 2-Chloro-3-bromo-4-(4-fluorophenyl)-5-(4-methylsulfonylphenyl)-1H-pyrrole] the “% decrease from control paw volume at indicated daily dose” value was 45%.

Same assay, conditions: rat, oral, daily dose 9 (mg/kg)

With `CC(C)(C)OC(=O)n1c(Br)cc(-c2ccc(F)cc2)c1-c1ccc(S(C)(=O)=O)cc1` [Example 1, 1-tert-Butyloxycarbonyl-2-bromo-4-(4-fluorophenyl)-5-(4-methylsulfonylphenyl)pyrrole] the “% decrease from control paw volume at indicated daily dose” value was 44%.
